Experimental data published in publication PMC11768359, “2-Aminothiophene Derivatives—New Drug Candidates Against Leishmaniasis: Drug Design, Synthesis, Pharmacomodulation, and Antileishmanial Activity” (Pharmaceuticals, 2025).
pIC50: −log10 of the molar value. Values joined by “and” are separate entries in the source; they are usually repeats but may differ in a detail not shown here. Identical values can stand only once. Like-named read-outs stand apart in the source and are kept apart here.

Key:
[1] = system: axenic amastigotes of L. amazonensis; experiment: Growth inhibition of axenic amastigote forms of L. amazonensis (MTT); assay type: cell-based, Leishmania amazonensis; details: 72 h, 32 °C
Experimental: (§1) The in vitro tests utilized Leishmania amazonensis parasites (IFLA/BR/67/PH8). These leishmania cell lines were obtained from Oswaldo Cruz Foundation (FIOCRUZ)/Brazil. The promastigote forms were cultivated in Schneider’s insect medium at 26 °C in a biological oxygen demand (BOD) incubator. Schneider’s insect medium was supplemented with 20% fetal bovine serum (FBS) and 1% penicillin (100 U/mL) and streptomycin (µg/mL) (complete Schneider). Next, we differentiated them from promastigote forms by changing the conditions to Schneider’s insect medium supplemented with 5% FBS, pH 4.6, and a temperature of 32 °C to obtain axenic amastigote forms of L. amazonensis. Meanwhile, RAW 264.7 macrophages were cultured in […] cell culture flasks using DMEM medium supplemented with 10% FBS, 1% penicillin 100 U/mL, and 100 μg/mL streptomycin (complete DMEM) and incubated at 37 °C and 5% CO2.
(§2) Parasite growth inhibition was evaluated using the methodology described by Rodrigues et al. (2015). Cultures of logarithmically growing promastigote and axenic amastigote forms (1 × 10^6 parasites/mL) were incubated in 96-well plates containing 100 µL of supplemented Schneider’s medium in triplicate. Serial concentrations of 2-amino-thiophene and 2-amino-selenophene derivatives (10.00–0.156 μM) and the reference drugs meglumine antimoniate (500–40,000 μg/mL), amphoterecinB (0.1–2 μM), and pentamidine (3.12–100 µM) were added. BNP was used as a negative control. The cultures were incubated in a biological oxygen demand oven (model Eletrolab EL202, São Paulo, Brazil) at 26 °C for promastigotes and 32 °C for axenic amastigotes for 72 h. Then, 10 μL of MTT (5 mg/mL) was added to each well to colorimetrically evaluate growth inhibition. The plate was subsequently incubated for a further 4 h, followed by adding 50 μL of 10% sodium dodecyl sulfate solution for […] before the optical density of the culture was read on a microplate spectrophotometer reader. The reading was taken at the test and reference wavelengths of 540 and 620 nm using a microplate spectrophotometer. The negative control consisted of 0.2% […] with BNP, considered to be 100% viable.

[2] = system: promastigotes of L. amazonensis; experiment: Growth inhibition of promastigote forms of L. amazonensis (MTT); assay type: cell-based, Leishmania amazonensis; details: 72 h, 26 °C
Experimental: as §1, §2

[3] = system: promastigotes of L. amazonensis; details: cited from earlier work
[4] = system: axenic amastigotes of L. amazonensis; details: cited from earlier work
RAW 264.7 macrophages = details: previously published; cited from earlier work
[5] = Cytotoxicity in macrophages (MTT); assay type: cell-based; details: mouse, RAW 264.7 macrophages
Experimental: as §1
First, 100 μL DMEM medium complete with 1 × 10^6 macrophages (RAW 264.7) was added to each well of a 96-well plate. RAW 264.7 macrophages were obtain from ATCC: code TIB-71^TM. The plate was placed in an incubator (37 °C, 5% CO2) (Sanyo, model COM-15A, Sanyo Electric Co., Osaka, Japan) for 4 h to promote cell adhesion. After this period, two washes were conducted with previously heated DMEM medium (37 °C) to remove non-adhered cells. 2-amino-thiophene and 2-amino-selenophene derivatives were added to wells at serial concentrations of 400 to 25 µM and then incubated for 48 h. Next, 10 μL of MTT at a […] of 5 mg/mL were added to each well and incubated for 4 h. The plate was then shaken for 30 min and read at the test and reference wavelengths of 550 and 620 nm, respectively, in a plate reader. DMEM medium supplemented with 0.5% DMSO was used as a negative control and considered as 100% macrophage viability. The selectivity index for each treatment was calculated as the ratio between the concentration of cytotoxicity of RAW 264.7 macrophages (CC50) and the 50% inhibitory concentration (IC50) or effective concentration (EC50), as measured for the different evolutionary forms of L. amazonensis.

[6] = L. amazonensis promastigotes, previously published, read-out: IC50 Promastigotes
[7] = L. amazonensis axenic amastigotes, previously published, read-out: IC50 Amastigotes

| Structure (SMILES) | pIC50 ([1]; Leishmania amazonensis) | pIC50 ([2]; Leishmania amazonensis) | other results |
| --- | --- | --- | --- |
| Cc1cc(C#N)c(N)s1 [Compound 1] | < 5.00 | < 5.00 | – |
| NC(=O)c1ccsc1N [Compound 2] | < 5.00 | ≤ 5.00 | pIC50 [2]: < 5.00 |
| CCOC(=O)c1ccsc1N [Compound 3] | < 5.00 | ≤ 5.00 | pIC50 [2]: < 5.00 |
| N#Cc1c(N)sc2c1CCC2 [Compound 4] | < 5.00 | < 5.00 | – |
| N#Cc1c(N)sc2c1CCCC2 [Compound 5] | – | – | pIC50 [3, 6]: < 5.00 |
| N#Cc1c(N)sc2c1CCCCC2 [Compound 7CN] | – | – | pIC50 [4, 7]: 5.57 and 5.55; pIC50 [3, 6]: 5.49 and 5.50; CC50 (RAW 264.7 macrophages): 99.5 µM |
| NC(=O)c1c(N)sc2c1CCCC2 [Compound 7] | < 5.00 | ≤ 5.00 | pIC50 [2]: < 5.00 |
| N#Cc1c(/N=C/c2c[nH]c3ccc(Br)cc23)sc2c1CCCCCC2 [Compound 8CN83] | – | – | pIC50 [4, 7]: 5.42; pIC50 [3, 6]: 5.33 and 5.32; CC50 (RAW 264.7 macrophages): > 100 µM |
| N#Cc1c(N)sc2c1CCCCCC2 [Compound 8CN] | – | – | pIC50 [3, 6]: 5.92; CC50 (RAW 264.7 macrophages): 43.9 µM |
| NC(=O)c1c(N)sc2c1CCCCCC2 [Compound 8] | < 5.00 | ≤ 5.00 | pIC50 [2]: < 5.00 |
| CCOC(=O)c1c(N)sc2c1CCC2 [Compound 9] | – | < 5.00 | – |
| CCOC(=O)c1c(N)sc2c1CCCC2 [Compound 10] | – | < 5.00 | – |
| CCOC(=O)c1c(N)sc2c1CCCCC2 [Compound 11] | – | < 5.00 | – |
| CC1CCc2c(sc(N)c2C#N)C1 (stereo not shown) [Compound 13] | < 5.00 | < 5.00 | – |
| CCC1CCc2c(sc(N)c2C#N)C1 (stereo not shown) [Compound 14] | < 5.00 | < 5.00 | – |
| CCCC1CCc2c(sc(N)c2C#N)C1 (stereo not shown) [Compound 15] | > 5.00 | > 5.00 | pIC50 [1]: 5.03; pIC50 [2]: 5.04 |
| CC(C)(C)OC(=O)N1CCc2c(sc(N)c2C#N)C1 [Compound 17, 2-Amino-6-N-Boc-Piperidine[b]Thiophene-3-Carbonitrile] | < 5.00 | 5.06 | – |
| N#Cc1c(N)sc2c1CCN(Cc1ccccc1)C2 [Compound 18] | < 5.00 | < 5.00 | IC50 Promastigotes [2]: inactive compound |
| CC(C)(C)OC(=O)N1CCc2c(sc(N)c2C(N)=O)C1 [Compound 19] | < 5.00 | 5.03 | pIC50 ([4]; L. amazonensis, read-out: IC50 against axenic amastigotes): 6.05; pIC50 ([3]; L. amazonensis, read-out: IC50 against promastigotes): 5.68 and 5.67; CC50 at 48 h [5]: 310 µM |
| CCOC(=O)c1c(N)sc2c1CCC(C)C2 (stereo not shown) [Compound 20] | – | ≤ 5.00 | pIC50 [2]: < 5.00 |
| CCOC(=O)c1c(N)sc2c1CCN(C(=O)OC(C)(C)C)C2 [Compound 21] | 5.54 | 5.51 | CC50 at 48 h [5]: 221 µM |
| CC(C)(C)OC(=O)c1c(N)sc2c1CCN(C(=O)OC(C)(C)C)C2 [Compound 22] | 5.08 | 5.19 | CC50 at 48 h [5]: 195 µM |
| N#Cc1c(N)sc2c1CCNC2 [Compound 23] | < 5.00 | < 5.00 | – |
| Cc1cc(C#N)c(/N=C/c2c[nH]c3ccc(Br)cc23)s1 [Compound 24] | < 5.00 | < 5.00 | – |
